From BindingDB's records for doi:10.1021/acs.jmedchem.7b01231 (Dongguk University, 2017)

Target: Hypoxia-inducible factor 1-alpha (Homo sapiens, UniProt Q16665)
Assay: ChEBML_1681384
Procedure: Inhibition of HIF-1alpha in human HCT116 cells incubated for 12 hrs under hypoxic conditions by HRE dual-luciferase reporter gene assay

Chain of Hypoxia-inducible factor 1-alpha (Q16665 whole entry): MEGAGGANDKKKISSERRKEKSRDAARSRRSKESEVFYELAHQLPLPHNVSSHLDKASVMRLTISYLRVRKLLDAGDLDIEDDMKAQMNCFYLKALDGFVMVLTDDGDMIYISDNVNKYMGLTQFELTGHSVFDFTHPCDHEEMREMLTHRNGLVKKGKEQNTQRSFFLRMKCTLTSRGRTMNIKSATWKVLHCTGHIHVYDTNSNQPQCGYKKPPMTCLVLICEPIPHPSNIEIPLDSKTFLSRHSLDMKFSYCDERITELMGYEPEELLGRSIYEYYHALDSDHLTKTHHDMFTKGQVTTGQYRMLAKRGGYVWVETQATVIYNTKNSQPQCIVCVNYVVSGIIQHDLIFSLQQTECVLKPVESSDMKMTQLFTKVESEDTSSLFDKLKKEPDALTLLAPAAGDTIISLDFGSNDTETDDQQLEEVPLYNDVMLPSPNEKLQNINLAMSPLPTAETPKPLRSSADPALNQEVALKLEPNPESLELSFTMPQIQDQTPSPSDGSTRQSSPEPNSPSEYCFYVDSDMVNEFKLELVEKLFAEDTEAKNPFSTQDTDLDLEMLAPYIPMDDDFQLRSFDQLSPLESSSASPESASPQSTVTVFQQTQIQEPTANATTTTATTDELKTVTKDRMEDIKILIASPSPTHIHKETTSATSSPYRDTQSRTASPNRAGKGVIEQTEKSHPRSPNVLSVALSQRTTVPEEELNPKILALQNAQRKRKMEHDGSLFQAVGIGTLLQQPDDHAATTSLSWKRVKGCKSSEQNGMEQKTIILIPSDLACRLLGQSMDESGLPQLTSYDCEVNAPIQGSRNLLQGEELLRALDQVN

| Compound | IC50 [µM] |
| --- | --- |
| CCCCCc1ccc(OCC(=O)Nc2cccc(C(=O)OC)c2)cc1 | > 40 |
| COC(=O)c1ccc(OC)c(NC(=O)COc2ccc(C(C)(C)CC(C)(C)C)cc2)c1 | > 40 |
| COC(=O)c1cccc(NC(=O)CCCOc2ccc(C(C)(C)CC(C)(C)C)cc2)c1 | 1.4 |
